The test deals with T1, BTK (Homo sapiens, UniProt Q06187).
T1 construct: endogenous in cells; host or cells: TMD-8 cells
The test can be described thus: BTK degradation in TMD-8 cells, HTRF assay after 6 h treatment. Type of test: cell-based. As to conditions: IC50 (DC50) of BTK degradation. Summed up:
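Remaining BTK was quantified by HTRF in lysates of TMD-8 cells after 6 h exposure to an 8-point, 6-fold compound series (500× stocks in DMSO starting at 1 mM; 0.2% DMSO). Lysis 30 min, antibodies overnight at room temperature, ratio read at 665/620 nm; DC50 fitted with a four-parameter logistic equation.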

Data on 7 compounds can be found in US20230322761A1, “DEGRADATION OF BRUTON'S TYROSINE KINASE (BTK) BY CONJUGATION OF BTK INHIBITORS WITH E3 LIGASE LIGAND AND METHODS OF USE” (BEIGENE, LTD., priority 2020, published 2023).

“And” between values parts separate entries of the source, which are not always exact repeats. Identical values can stand only once.

T1 sequence (Q06187 whole entry): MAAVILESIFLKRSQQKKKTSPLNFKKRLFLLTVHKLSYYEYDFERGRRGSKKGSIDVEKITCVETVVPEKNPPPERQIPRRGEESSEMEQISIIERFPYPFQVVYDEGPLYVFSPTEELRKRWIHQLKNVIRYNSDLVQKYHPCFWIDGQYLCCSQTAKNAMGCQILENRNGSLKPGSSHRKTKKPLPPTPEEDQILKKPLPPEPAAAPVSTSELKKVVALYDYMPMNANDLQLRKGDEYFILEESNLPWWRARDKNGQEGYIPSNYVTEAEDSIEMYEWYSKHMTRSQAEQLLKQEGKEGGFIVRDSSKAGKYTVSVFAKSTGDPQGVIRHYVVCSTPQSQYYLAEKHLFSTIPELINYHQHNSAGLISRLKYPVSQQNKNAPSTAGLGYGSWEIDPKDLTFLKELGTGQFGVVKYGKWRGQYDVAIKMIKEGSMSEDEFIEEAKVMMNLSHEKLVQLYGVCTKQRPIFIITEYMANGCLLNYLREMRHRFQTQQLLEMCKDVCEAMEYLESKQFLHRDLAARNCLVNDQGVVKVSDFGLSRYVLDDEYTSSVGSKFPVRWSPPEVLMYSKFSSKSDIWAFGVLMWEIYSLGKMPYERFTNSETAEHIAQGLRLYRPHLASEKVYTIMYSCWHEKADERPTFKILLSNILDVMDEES

`Cc1cc(-c2n[nH]c3ncc(-c4ccc(C5CCN(CC6CCN(c7ccc(N8CCC(=O)NC8=O)cc7)CC6)CC5)nc4)cc23)ccc1CNC(=O)c1noc(C(C)(C)C)n1` [Example 63, 5-(tert-butyl)-N-(4-(5-(6-(1-((1-(4-(2,4-dioxotetrahydropyrimidin-1(2H)-yl)phenyl)piperidin-4-yl)methyl)piperidin-4-yl)pyridin-3-yl)-1H-pyrazolo[3,4-b]pyridin-3-yl)-2-methylbenzyl)-1,2,4-oxadiazole-3-carboxamide] yielded a 50% degradation concentration (DC50) of 4.22 nM. Turning to `Cc1cc(-c2n[nH]c3ncc(-c4ccc(N5CCN(CC6CCN(c7ccc(N8CCC(=O)NC8=O)cc7)CC6)CC5)nc4)cc23)ccc1CNC(=O)c1noc(C(C)(C)C)n1` [Example 65, 5-(tert-butyl)-N-(4-(5-(6-(4-((1-(4-(2,4-dioxotetrahydropyrimidin-1(2H)-yl)phenyl)piperidin-4-yl)methyl)piperazin-1-yl)pyridin-3-yl)-1H-pyrazolo[3,4-b]pyridin-3-yl)-2-methylbenzyl)-1,2,4-oxadiazole-3-carboxamide], the DC50 was found to be 7.67 nM.

Compound `Cc1cc(-c2n[nH]c3ncc(-c4ccc(N5CCN(CC6CCN(c7ccc(N8CCC(=O)NC8=O)cc7)CC6)CC5)cn4)cc23)ccc1CNC(=O)c1noc(C(C)(C)C)n1` [Example 66, 5-(tert-butyl)-N-(4-(5-(5-(4-((1-(4-(2,4-dioxotetrahydropyrimidin-1(2H)-yl)phenyl)piperidin-4-yl)methyl)piperazin-1-yl)pyridin-2-yl)-1H-pyrazolo[3,4-b]pyridin-3-yl)-2-methylbenzyl)-1,2,4-oxadiazole-3-carboxamide] gave a DC50 of 5.32 nM. For `Cc1cc(-c2n[nH]c3ncc(-c4ccc(N5CCN(CC6CCN(c7ccc(N8CCC(=O)NC8=O)cc7)CC6)CC5)nc4)cc23)ccc1CNC(=O)c1nc(C(C)(C)C)no1` [Example 68, 3-(tert-butyl)-N-(4-(5-(6-(4-((1-(4-(2,4-dioxotetrahydropyrimidin-1(2H)-yl)phenyl)piperidin-4-yl)methyl)piperazin-1-yl)pyridin-3-yl)-1H-pyrazolo[3,4-b]pyridin-3-yl)-2-methylbenzyl)-1,2,4-oxadiazole-5-carboxamide] the value was 1.47 nM; for `Cc1cc(-c2n[nH]c3ncc(-c4ccc(N5CCN(CC6CCN(c7ccc(N8CCC(=O)NC8=O)c(C)c7)CC6)CC5)nc4)cc23)ccc1CNC(=O)c1noc(C(C)(C)C)n1` [Example 69, 5-(tert-butyl)-N-(4-(5-(6-(4-((1-(4-(2,4-dioxotetrahydropyrimidin-1(2H)-yl)-3-methylphenyl)piperidin-4-yl)methyl)piperazin-1-yl)pyridin-3-yl)-1H-pyrazolo[3,4-b]pyridin-3-yl)-2-methylbenzyl)-1,2,4-oxadiazole-3-carboxamide], 2.5 nM and 2.37 nM; for `Cc1cc(-c2n[nH]c3ncc(-c4ccc(C5CCN(CC6CCN(c7ccc(N8CCC(=O)NC8=O)cc7)CC6)CC5)nc4)cc23)ccc1[C@@H](C)NC(=O)c1noc(C(C)(C)C)n1` [Example 71, (R)-5-(tert-butyl)-N-(1-(4-(5-(6-(1-((1-(4-(2,4-dioxotetrahydropyrimidin-1(2H)-yl)phenyl)piperidin-4-yl)methyl)piperidin-4-yl)pyridin-3-yl)-1H-pyrazolo[3,4-b]pyridin-3-yl)-2-methylphenyl)ethyl)-1,2,4-oxadiazole-3-carboxamide], 4.03 nM. For `Cc1cc(-c2n[nH]c3ncc(-c4ccc(C5CCN(CC6CCN(c7ccc(N8CCC(=O)NC8=O)cc7)CC6)CC5)cn4)cc23)ccc1[C@@H](C)NC(=O)c1noc(C(C)(C)C)n1` [Example 72, (R)-5-(tert-butyl)-N-(1-(4-(5-(5-(1-((1-(4-(2,4-dioxotetrahydropyrimidin-1(2H)-yl)phenyl)piperidin-4-yl)methyl)piperidin-4-yl)pyridin-2-yl)-1H-pyrazolo[3,4-b]pyridin-3-yl)-2-methylphenyl)ethyl)-1,2,4-oxadiazole-3-carboxamide] the value was 1.21 nM.

The DC50 is the concentration at which degradation of the target reaches its halfway point. Higher therefore signals a less potent degrader.
